Here are results for 10 compounds from US20080274892A1, “Novel Haloalkylsulfonanilide Derivative, Herbicide, and Method of Use Thereof” (priority 2005, published 2008).

The subject of series [1] is transplanted paddy rice plant and Bulrush. Nature of the series: Test Example 5: selectivity between transplanted paddy rice plant and weeds. The series is classed as in vivo. The settings on record: (highest dosage with no phytotoxicity to paddy rice)/(lowest dosage with effective level 4 on Bulrush); rice 3000-100 g/ha, Bulrush 300-10 g/ha; 21 days. In outline:
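Scoring ran 21 days after treatment in a hothouse on a 0–4 scale (4 = 90–100%, 3 = 70–89%, 2 = 40–69%, 1 = 1–39%, 0 = none) relative to untreated plants. Post-emergence bulrush received 10, 30, 100 and 300 g/ha active ingredient. Transplanted rice received 100, 300, 1000 and 3000 g/ha to assess crop injury.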

Series [2] deals with false pimpernel. Kind of series: Test Example 2: herbicidal efficacy on rice paddy weeds post-emergence. The format is in vivo, Lindernia pyxidaria. Conditions: dosage 1000 g/ha; post-emergence, one leaf stage; 21 days after treatment.
Series [3] deals with paddy rice plant (cultivar: Nihonbare). Kind of series: Test Example 3: phytotoxicity test for transplanted paddy rice plant. The series is classed as in vivo. The settings on record: dosage 1000 g/ha; transplanted rice, treated 5 days after transplantation; 21 days after treatment. The gist of the method:
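Clay loam soil was placed in a 75 cm^2 plastic pot and flooded to a water depth of 5 cm. Two Nihonbare paddy rice plants at the two-leaf stage were transplanted 1 cm deep and grown in a hot house. After treatment, pots stayed in the hot house for 21 days, and phytotoxicity was then graded against an untreated control.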

Series [4] concerns bulrush. Nature of the series: Test Example 1: herbicidal efficacy on rice paddy weeds pre-emergence. The series is classed as in vivo, Scirpus juncoides. The settings on record: dosage 1000 g/ha, 21 days.
The test system of series [5] is bulrush. Nature of the series: Test Example 2: herbicidal efficacy on rice paddy weeds post-emergence. The series is classed as in vivo, Scirpus juncoides. The settings on record: dosage 1000 g/ha; post-emergence, one leaf stage; 21 days after treatment.
A further series has as its system barnyard glass. Described as above. The format is in vivo, Echinochloa crus-galli. Conditions: dosage 1000 g/ha; post-emergence, one leaf stage; 21 days after treatment. In outline: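 Efficacy on paddy weeds was scored on a 0 to 4 growth-inhibition scale: 4 for 90%-100%, 3 for 70%-89%, 2 for 40%-69%, 1 for 1%-39% and 0 for 0%. Barnyard glass was grown in clay loam in 75 cm^2 pots under 5 cm of water in a hot house. It was compared with untreated pots 21 days after treatment.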

Series [6] has as its system false pimpernel. Nature of the series: Test Example 1: herbicidal efficacy on rice paddy weeds pre-emergence. The settings on record: dosage 1000 g/ha, 21 days. The format is in vivo, Lindernia pyxidaria.
The subject of series [7] is bulrush. Nature of the series: Test Example 4: low dosage test for rice paddy weeds. The format is in vivo, Scirpus juncoides. The settings on record: 300 g/ha as an active ingredient; plants treated at the one leaf stage; 21 days after treatment; vs untreated control. In outline: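 Compound applied as a formulation at 300 g/ha to one-leaf bulrush grown in flooded clay loam (5 cm water) in a hot house. After 21 days, growth inhibition versus untreated plants rated on a 0–4 scale, with 4 meaning 90–100%.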

With `CC(C)COC(=O)N(c1ccccc1CN1CC(C(C)C)OC1=O)S(=O)(=O)C(F)(F)F` (centres unmarked) [1-32], the “Selective Index” value in series [1] is reported as 10. Further, the “False pimpernel post (herbicidal efficacy grade)” value (“False pimpernel post” for short) with false pimpernel [2] was 4 (90%-100% of herbicidal efficacy or phytotoxicity). Also, the “Phytotoxicity to paddy rice” value in series [3] is listed as 0 (0% of herbicidal efficacy or phytotoxicity). Besides, in the series on bulrush [4], the “Bulrush pre (herbicidal efficacy grade)” value is recorded as 4 (90%-100% of herbicidal efficacy or phytotoxicity). Further, the “Bulrush post (herbicidal efficacy grade)” value with bulrush [5] was 4 (90%-100% of herbicidal efficacy or phytotoxicity). The “Burnyard grass post (herbicidal efficacy grade)” value (from here on “Burnyard grass post”) in the series on barnyard glass is listed as 4 (90%-100% of herbicidal efficacy or phytotoxicity). The “False pimpernel pre (herbicidal efficacy grade)” value (“False pimpernel pre” for short) with false pimpernel [6] is on record as 4 (90%-100% of herbicidal efficacy or phytotoxicity). Further, in the series on bulrush [7], the “Herbicide effect to Bulrush” value is reported as 3 (70%-89% of herbicidal efficacy or phytotoxicity).
As to `COC(=O)N(c1ccccc1CN1CC(C)(C)SC1=O)S(=O)(=O)C(F)(F)F` [1-186], the “Selective Index” value in series [1] was determined as 10. Further, the “False pimpernel post” value in the series with false pimpernel [2] is 4 (90%-100% of herbicidal efficacy or phytotoxicity). In series [3], the “Phytotoxicity to paddy rice” value is on record as 1 (1%-39% of herbicidal efficacy or phytotoxicity). In addition, the “Bulrush pre (herbicidal efficacy grade)” value in the series on bulrush [4] is listed as 4 (90%-100% of herbicidal efficacy or phytotoxicity). The “Bulrush post (herbicidal efficacy grade)” value with bulrush [5] was 4 (90%-100% of herbicidal efficacy or phytotoxicity). The “Burnyard grass post” value in the series with barnyard glass is reported as 4 (90%-100% of herbicidal efficacy or phytotoxicity). Also, in the series on false pimpernel [6], the “False pimpernel pre” value is 4 (90%-100% of herbicidal efficacy or phytotoxicity). The “Herbicide effect to Bulrush” value in the series on bulrush [7] is on record as 4 (90%-100% of herbicidal efficacy or phytotoxicity).
Regarding `CCCCCCOC(=O)N(c1ccccc1CN1CC(C)(C)OC1=O)S(=O)(=O)C(F)(F)F` [1-93], the “Selective Index” value in series [1] was “≧30”. Moreover, in the series with false pimpernel [2], the “False pimpernel post” value is given as 4 (90%-100% of herbicidal efficacy or phytotoxicity). Moreover, the “Phytotoxicity to paddy rice” value in series [3] was 1 (1%-39% of herbicidal efficacy or phytotoxicity). In the series with bulrush [4], the “Bulrush pre (herbicidal efficacy grade)” value is reported as 4 (90%-100% of herbicidal efficacy or phytotoxicity). In addition, in the series on bulrush [5], the “Bulrush post (herbicidal efficacy grade)” value was 4 (90%-100% of herbicidal efficacy or phytotoxicity). In addition, the “Burnyard grass post” value in the series with barnyard glass is 4 (90%-100% of herbicidal efficacy or phytotoxicity). For the same compound, the “False pimpernel pre” value in the series with false pimpernel [6] is given as 4 (90%-100% of herbicidal efficacy or phytotoxicity). In addition, the “Herbicide effect to Bulrush” value in the series with bulrush [7] is reported as 4 (90%-100% of herbicidal efficacy or phytotoxicity).
Regarding `CCCCOC(=O)N(c1ccccc1CN1C(=O)OC(C)(C)C1OC)S(=O)(=O)C(F)(F)F` (centres unmarked) [1-196], in series [1], the “Selective Index” value was determined as 10. The “False pimpernel post” value in the series on false pimpernel [2] is reported as 4 (90%-100% of herbicidal efficacy or phytotoxicity). Moreover, in series [3], the “Phytotoxicity to paddy rice” value is given as 1 (1%-39% of herbicidal efficacy or phytotoxicity). Moreover, in the series with bulrush [4], the “Bulrush pre (herbicidal efficacy grade)” value is 4 (90%-100% of herbicidal efficacy or phytotoxicity). In addition, the “Bulrush post (herbicidal efficacy grade)” value with bulrush [5] was 4 (90%-100% of herbicidal efficacy or phytotoxicity). Moreover, the “Burnyard grass post” value with barnyard glass was 4 (90%-100% of herbicidal efficacy or phytotoxicity). The “False pimpernel pre” value with false pimpernel [6] is 4 (90%-100% of herbicidal efficacy or phytotoxicity). For the same compound, the “Herbicide effect to Bulrush” value in the series with bulrush [7] is 4 (90%-100% of herbicidal efficacy or phytotoxicity).
As for `CCCCOC(=O)N(c1ccccc1CN1CC(CC)(CC)OC1=O)S(=O)(=O)C(F)(F)F` [1-99], the “Selective Index” value in series [1] is given as 10. The “False pimpernel post” value in the series on false pimpernel [2] is on record as 4 (90%-100% of herbicidal efficacy or phytotoxicity). In addition, in series [3], the “Phytotoxicity to paddy rice” value is 1 (1%-39% of herbicidal efficacy or phytotoxicity). For the same compound, the “Bulrush pre (herbicidal efficacy grade)” value with bulrush [4] was 4 (90%-100% of herbicidal efficacy or phytotoxicity). In the series on bulrush [5], the “Bulrush post (herbicidal efficacy grade)” value is listed as 4 (90%-100% of herbicidal efficacy or phytotoxicity). Besides, the “Burnyard grass post” value in the series on barnyard glass is listed as 4 (90%-100% of herbicidal efficacy or phytotoxicity). In the series with false pimpernel [6], the “False pimpernel pre” value is reported as 4 (90%-100% of herbicidal efficacy or phytotoxicity). Besides, the “Herbicide effect to Bulrush” value with bulrush [7] is reported as 4 (90%-100% of herbicidal efficacy or phytotoxicity).
For the compound `C=CCOC(=O)N(c1ccccc1CN1CC(C)(C)OC1=O)S(=O)(=O)C(F)(F)F` [1-82], in series [1], the “Selective Index” value was “≧30”. In the series on false pimpernel [2], the “False pimpernel post” value is 4 (90%-100% of herbicidal efficacy or phytotoxicity). Also, the “Phytotoxicity to paddy rice” value in series [3] was 2 (40%-69% of herbicidal efficacy or phytotoxicity). The “Bulrush pre (herbicidal efficacy grade)” value with bulrush [4] is reported as 4 (90%-100% of herbicidal efficacy or phytotoxicity). Further, in the series on bulrush [5], the “Bulrush post (herbicidal efficacy grade)” value was 4 (90%-100% of herbicidal efficacy or phytotoxicity). Besides, the “Burnyard grass post” value in the series on barnyard glass is reported as 4 (90%-100% of herbicidal efficacy or phytotoxicity). Moreover, the “False pimpernel pre” value in the series on false pimpernel [6] was 4 (90%-100% of herbicidal efficacy or phytotoxicity). Moreover, the “Herbicide effect to Bulrush” value with bulrush [7] is given as 4 (90%-100% of herbicidal efficacy or phytotoxicity).
Take `CC(C)COC(=O)N(c1ccccc1CN1CC(CCl)OC1=O)S(=O)(=O)C(F)(F)F` (centres unmarked) [1-40]: in series [1], the “Selective Index” value is listed as 100. Also, the “False pimpernel post” value in the series with false pimpernel [2] is listed as 4 (90%-100% of herbicidal efficacy or phytotoxicity). Besides, the “Phytotoxicity to paddy rice” value in series [3] is 0 (0% of herbicidal efficacy or phytotoxicity). The “Bulrush pre (herbicidal efficacy grade)” value with bulrush [4] is on record as 4 (90%-100% of herbicidal efficacy or phytotoxicity). Also, the “Bulrush post (herbicidal efficacy grade)” value in the series on bulrush [5] is 4 (90%-100% of herbicidal efficacy or phytotoxicity). Also, the “Burnyard grass post” value in the series on barnyard glass is reported as 4 (90%-100% of herbicidal efficacy or phytotoxicity). The “False pimpernel pre” value with false pimpernel [6] is listed as 4 (90%-100% of herbicidal efficacy or phytotoxicity). Also, the “Herbicide effect to Bulrush” value in the series on bulrush [7] was 4 (90%-100% of herbicidal efficacy or phytotoxicity).
Turning to `CCCC1(C)CN(Cc2ccccc2N(C(=O)OCC(C)C)S(=O)(=O)C(F)(F)F)C(=O)O1` (racemic) [1-122], the “Selective Index” value in series [1] worked out at 10. The “False pimpernel post” value in the series on false pimpernel [2] is 4 (90%-100% of herbicidal efficacy or phytotoxicity). Further, the “Phytotoxicity to paddy rice” value in series [3] is given as 1 (1%-39% of herbicidal efficacy or phytotoxicity). The “Bulrush pre (herbicidal efficacy grade)” value in the series on bulrush [4] is on record as 4 (90%-100% of herbicidal efficacy or phytotoxicity). Also, the “Bulrush post (herbicidal efficacy grade)” value with bulrush [5] is listed as 4 (90%-100% of herbicidal efficacy or phytotoxicity). The “Burnyard grass post” value in the series with barnyard glass is given as 4 (90%-100% of herbicidal efficacy or phytotoxicity). Also, the “False pimpernel pre” value with false pimpernel [6] was 4 (90%-100% of herbicidal efficacy or phytotoxicity). In the series with bulrush [7], the “Herbicide effect to Bulrush” value is given as 4 (90%-100% of herbicidal efficacy or phytotoxicity).
Turning to `COCCOC(=O)N(c1ccccc1CN1CC(C)(C)OC1=O)S(=O)(=O)C(F)(F)F` [1-81], the “Selective Index” value in series [1] is 30. Besides, the “False pimpernel post” value with false pimpernel [2] is 4 (90%-100% of herbicidal efficacy or phytotoxicity). In series [3], the “Phytotoxicity to paddy rice” value is 2 (40%-69% of herbicidal efficacy or phytotoxicity). Moreover, in the series on bulrush [4], the “Bulrush pre (herbicidal efficacy grade)” value is 4 (90%-100% of herbicidal efficacy or phytotoxicity). Besides, the “Bulrush post (herbicidal efficacy grade)” value in the series with bulrush [5] is given as 4 (90%-100% of herbicidal efficacy or phytotoxicity). Also, the “Burnyard grass post” value in the series on barnyard glass is on record as 4 (90%-100% of herbicidal efficacy or phytotoxicity). For the same compound, the “False pimpernel pre” value with false pimpernel [6] was 4 (90%-100% of herbicidal efficacy or phytotoxicity). Also, the “Herbicide effect to Bulrush” value in the series with bulrush [7] is listed as 4 (90%-100% of herbicidal efficacy or phytotoxicity).
In the case of `CCCCOC(=O)N(c1ccccc1CN1CC(C)(C)OC1=O)S(=O)(=O)C(F)(F)F` [1-63], the “Selective Index” value in series [1] is “≧30”. Besides, in the series with false pimpernel [2], the “False pimpernel post” value is reported as 4 (90%-100% of herbicidal efficacy or phytotoxicity). For the same compound, the “Phytotoxicity to paddy rice” value in series [3] is recorded as 2 (40%-69% of herbicidal efficacy or phytotoxicity). For the same compound, the “Bulrush pre (herbicidal efficacy grade)” value in the series on bulrush [4] was 4 (90%-100% of herbicidal efficacy or phytotoxicity). Moreover, the “Bulrush post (herbicidal efficacy grade)” value in the series on bulrush [5] is 4 (90%-100% of herbicidal efficacy or phytotoxicity). Further, the “Burnyard grass post” value in the series with barnyard glass is listed as 4 (90%-100% of herbicidal efficacy or phytotoxicity). In addition, the “False pimpernel pre” value with false pimpernel [6] is given as 4 (90%-100% of herbicidal efficacy or phytotoxicity). Further, the “Herbicide effect to Bulrush” value in the series on bulrush [7] was 4 (90%-100% of herbicidal efficacy or phytotoxicity).
